Activity calls are given as the source filed them. The rule behind the calls is not given here.
Columns and labels:
[1] = target: T1, Peroxisome proliferator-activated receptor alpha (Homo sapiens) (UniProt Q07869); assay: Antagonist activity at GAL4-tagged human PPARalpha LBD expressed in human HepG2 cells assessed as inhibition of Wy14,643-induced receptor transactivation at 25 uM incubated for 20 hrs by luciferase reporter gene assay relative to control; type: cell-based
T1 sequence (whole entry): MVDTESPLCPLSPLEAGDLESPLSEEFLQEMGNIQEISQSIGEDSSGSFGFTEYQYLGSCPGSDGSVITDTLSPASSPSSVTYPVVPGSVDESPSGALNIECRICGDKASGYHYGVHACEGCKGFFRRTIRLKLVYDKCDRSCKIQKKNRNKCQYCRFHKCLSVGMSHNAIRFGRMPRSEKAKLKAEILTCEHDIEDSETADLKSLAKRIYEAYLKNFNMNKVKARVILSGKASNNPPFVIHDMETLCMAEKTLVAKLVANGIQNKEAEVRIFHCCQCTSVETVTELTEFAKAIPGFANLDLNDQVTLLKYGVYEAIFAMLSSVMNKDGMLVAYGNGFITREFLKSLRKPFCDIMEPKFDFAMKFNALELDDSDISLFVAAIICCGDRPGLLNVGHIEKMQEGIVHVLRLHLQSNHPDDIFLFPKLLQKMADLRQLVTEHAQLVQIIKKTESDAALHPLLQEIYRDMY

SW480 = assay: Cytotoxicity against human SW480 cells assessed as reduction in cell viability at 75 uM incubated for 72 hrs by MTT assay; type: functional; conditions: for inhibition at 75 µM: SW480, 72 h
HT-29 = assay: Cytotoxicity against human HT-29 cells assessed as reduction in cell viability at 75 uM incubated for 72 hrs by MTT assay; type: functional; conditions: for inhibition at 75 µM: HT-29, 72 h
[2] = (§1) Cytotoxicity against human PTJ86i cells assessed as reduction in cell viability at 75 uM incubated for 72 hrs by MTT assay; type: functional
[3] = target: T2, Peroxisome proliferator-activated receptor gamma (Homo sapiens) (UniProt P37231); assay: Antagonist activity at GAL4-tagged human PPARgamma LBD expressed in human HepG2 cells assessed as inhibition of rosiglitazone-induced receptor transactivation at 25 uM incubated for 20 hrs by luciferase reporter gene assay relative to control; type: cell-based
T2 sequence (whole entry): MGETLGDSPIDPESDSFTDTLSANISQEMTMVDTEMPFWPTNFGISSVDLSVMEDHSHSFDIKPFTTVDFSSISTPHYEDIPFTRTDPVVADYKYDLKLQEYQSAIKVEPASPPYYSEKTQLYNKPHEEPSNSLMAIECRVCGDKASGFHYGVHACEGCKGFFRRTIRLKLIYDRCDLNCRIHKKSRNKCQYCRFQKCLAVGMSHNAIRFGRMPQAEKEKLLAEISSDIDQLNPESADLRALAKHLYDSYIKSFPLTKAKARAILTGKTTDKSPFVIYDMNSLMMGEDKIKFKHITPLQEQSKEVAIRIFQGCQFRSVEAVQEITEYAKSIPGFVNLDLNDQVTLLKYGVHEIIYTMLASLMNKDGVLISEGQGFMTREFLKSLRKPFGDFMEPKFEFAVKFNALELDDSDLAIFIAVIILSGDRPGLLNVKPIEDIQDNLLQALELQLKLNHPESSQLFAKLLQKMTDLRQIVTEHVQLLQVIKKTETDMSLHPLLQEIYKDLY

[4] = target: T3, Peroxisome proliferator-activated receptor delta (Homo sapiens) (UniProt Q03181); assay: Antagonist activity at GAL4-tagged human PPARdelta LBD expressed in human HepG2 cells assessed as inhibition of L-165,041-induced receptor transactivation at 25 uM incubated for 20 hrs by luciferase reporter gene assay relative to control; type: cell-based
T3 sequence (whole entry): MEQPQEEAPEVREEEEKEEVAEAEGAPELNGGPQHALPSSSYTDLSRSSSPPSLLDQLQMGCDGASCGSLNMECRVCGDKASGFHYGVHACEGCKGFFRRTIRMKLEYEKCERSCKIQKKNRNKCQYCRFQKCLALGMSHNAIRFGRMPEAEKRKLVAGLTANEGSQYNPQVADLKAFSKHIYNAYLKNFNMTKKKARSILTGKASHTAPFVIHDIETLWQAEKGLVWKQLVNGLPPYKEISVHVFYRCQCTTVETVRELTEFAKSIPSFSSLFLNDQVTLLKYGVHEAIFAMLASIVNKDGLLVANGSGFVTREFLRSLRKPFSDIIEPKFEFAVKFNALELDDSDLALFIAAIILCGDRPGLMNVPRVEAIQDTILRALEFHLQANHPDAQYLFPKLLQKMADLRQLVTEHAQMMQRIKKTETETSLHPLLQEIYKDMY

ASPC1 = assay: Cytotoxicity against human AsPC1 cells assessed as reduction in cell viability at 75 uM incubated for 72 hrs by MTT assay; type: functional; conditions: for inhibition at 75 µM: ASPC1, 72 h
[5] = (§2) Cytotoxicity against human PTJ64i cells assessed as reduction in cell viability at 75 uM incubated for 72 hrs by MTT assay; type: functional
Capan-2 = assay: Cytotoxicity against human Capan2 cells assessed as reduction in cell viability at 75 uM incubated for 72 hrs by MTT assay; type: functional; conditions: for inhibition at 75 µM: Capan-2, 72 h
[6] = Inhibition of colony formation in human PTJ86i cells assessed as surviving fraction at 24 uM incubated for 13 days by crystal violet staining based assay (Rvb=100%); type: functional; conditions: 312 h, read-out: Survival
[7] = Inhibition of colony formation in human PTJ64i cells assessed as surviving fraction at 24 uM incubated for 13 days by crystal violet staining based assay (Rvb=100%); type: functional; conditions: 312 h, read-out: Survival
[8] = Inhibition of colony formation in human PTJ64i cells assessed as plating efficiency at 24 uM incubated for 13 days by crystal violet staining based assay (Rvb=10.75%); type: functional; design: scale not given: the % may be the effect or the level left
Homo sapiens [9] = species on record: Homo sapiens; assay: Cytotoxicity against human PTJ86i cells assessed as reduction in cell viability incubated for 72 hrs by MTT assay; type: functional, cell-based
[10] = Inhibition of colony formation in human PTJ86i cells assessed as plating efficiency at 24 uM incubated for 13 days by crystal violet staining based assay (Rvb=30.25%); type: functional; design: scale not given: the % may be the effect or the level left
Homo sapiens [11] = species on record: Homo sapiens; assay: Cytotoxicity against human PTJ64i cells assessed as reduction in cell viability incubated for 72 hrs by MTT assay; type: functional, cell-based
Homo sapiens [12] = species on record: Homo sapiens; assay: as §1; type: functional
Homo sapiens [13] = species on record: Homo sapiens; assay: as §2; type: functional

SMILES | %max [1] | inhibition at 75 µM (SW480) | inhibition at 75 µM (HT-29) | inhibition at 75 µM [2] | %max [3] | %max [4] | inhibition at 75 µM (ASPC1) | inhibition at 75 µM [5] | inhibition at 75 µM (Capan-2) | further results
CC(=O)Nc1ccc(NC(=O)C(Sc2nc3cc(Cl)ccc3s2)c2ccccc2)cc1 (stereo not given) | 22% | ≤ 50% | ≤ 50% | ≥ 50% | < 2% | < 2% | ≤ 50% | ≥ 50% | ≤ 50% | –
O=C(NCCCc1ccccc1)C(Sc1nc2cc(Cl)ccc2s1)c1ccccc1 (stereo not given) | 46% | ≤ 63% | ≤ 63% | ≥ 50% | < 2% | < 2% | ≤ 50% | ≥ 50% | ≤ 50% | –
O=C(NCc1ccccc1)C(Sc1nc2cc(Cl)ccc2s1)c1ccccc1 (stereo not given) | 35% | ≤ 50% | ≤ 50% | ≥ 50% | < 2% | < 2% | ≤ 50% | ≥ 50% | ≤ 50% | –
CCCCNC(=O)C(Sc1nc2cc(Cl)ccc2s1)c1ccccc1 (stereo not given) | 31% | ≤ 50% | ≤ 50% | ≥ 50% | < 2% | < 2% | ≤ 50% | ≥ 50% | ≤ 50% | –
O=C(Nc1ccccc1)C(Sc1nc2cc(Cl)ccc2s1)c1ccccc1 (stereo not given) | 22% | ≤ 68% | ≤ 68% | > 90% | < 2% | < 2% | ≤ 75% | > 90% | ≤ 75% | viability at 24 µM [6]: 18.2%; viability at 24 µM [7]: 23.3%; Activity [8]: 2.5%; inhibition (Homo sapiens [9]): Dose-dependent effect; Activity [10]: 5.5%; inhibition (Homo sapiens [11]): Dose-dependent effect
O=C(NCCc1ccccc1)C(Sc1nc2cc(Cl)ccc2s1)c1ccccc1 (stereo not given) | 57% | ≤ 50% | ≤ 50% | ≥ 50% | < 2% | < 2% | ≤ 74% | ≥ 50% | ≤ 74% | –
CC(NC(=O)C(Sc1nc2cc(Cl)ccc2s1)c1ccccc1)c1ccccc1 (stereo not given) | 45% | 60% | ≤ 50% | ≥ 50% | < 2% | < 2% | ≤ 50% | ≥ 50% | ≤ 50% | –
CCC(=O)NC[C@H](Cc1ccc(OCCc2nc(-c3ccccc3)oc2C)cc1)N/C(C)=C\C(=O)c1ccc(C(F)(F)F)cc1 | – | – | – | – | – | – | – | – | – | inhibition (SW480): Active; inhibition (HT-29): Active; inhibition (Homo sapiens [12]): Active; inhibition (ASPC1): Active; inhibition (Homo sapiens [13]): Active; inhibition (Capan-2): Active

Reference: ChEMBL document CHEMBL4385632, “Synthesis of novel benzothiazole amides: Evaluation of PPAR activity and anti-proliferative effects in paraganglioma, pancreatic and colorectal cancer cell lines” (2019)
